According to ChEMBL document CHEMBL5252512, “Recent Progress in the Development of HIV-1 Protease Inhibitors for the Treatment of HIV/AIDS” (J Med Chem, 2016):

These molecules were tested on Human immunodeficiency virus 1 (assay: Antiviral activity against HIV1 T13572 infected in human MT4 cells expressing LTR and EGFP assessed as inhibition of virus-induced cytopathic effect by fluorescence microscopic analysis). Conditions: Human immunodeficiency virus 1, T13572, MT4.
Type: functional, organism-based

**Q.** Which EC50 does the source give for `CC(C)CN(C[C@@H](O)[C@H](Cc1ccccc1)NC(=O)O[C@H]1CO[C@H]2OCC[C@H]21)S(=O)(=O)c1ccc2sc(NC3CCN(C4CCCC4)CC3)nc2c1` here?
**A.** 1.5 nM

These molecules were tested on Human immunodeficiency virus 1 (assay: Ratio of EC50 for antiviral activity against HIV1-T13572 to EC50 for antiviral activity against wild type HIV1 r13205). Conditions: not given.
Type: functional

**Q.** For `CC(C)CN(C[C@@H](O)[C@H](Cc1ccccc1)NC(=O)O[C@H]1CO[C@H]2OCC[C@H]21)S(=O)(=O)c1ccc2sc(NC3CCN(C4CCCC4)CC3)nc2c1`, which “Ratio EC50” value is on record?
**A.** 0.058

The molecules below were run on Human immunodeficiency virus 1 (assay: Ratio of EC50 for antiviral activity against HIV1-T21217 to EC50 for antiviral activity against wild type HIV1 r13205). Conditions: not given.
Type: functional

**Q.** Which “Ratio EC50” value does the source give for `CC(C)CN(C[C@@H](O)[C@H](Cc1ccccc1)NC(=O)O[C@H]1CO[C@H]2OCC[C@H]21)S(=O)(=O)c1ccc2sc(NC3CCN(C4CCCC4)CC3)nc2c1` here?
**A.** 12

These molecules were tested on Human immunodeficiency virus 1 (assay: Antiviral activity against HIV1 T21055 infected in human MT4 cells expressing LTR and EGFP assessed as inhibition of virus-induced cytopathic effect by fluorescence microscopic analysis). Conditions: Human immunodeficiency virus 1, T21055, MT4.
Type: functional, organism-based

**Q.** How did the EC50 turn out when `CC(C)CN(C[C@@H](O)[C@H](Cc1ccccc1)NC(=O)O[C@H]1CO[C@H]2OCC[C@H]21)S(=O)(=O)c1ccc2sc(NC3CCN(C4CCCC4)CC3)nc2c1` was run?
**A.** 308 nM

Each molecule was assayed on Human immunodeficiency virus 1 (assay: Ratio of EC50 for antiviral activity against HIV1-T13632 to EC50 for antiviral activity against wild type HIV1 r13205). Conditions: not given.
Type: functional

**Q.** Which “Ratio EC50” value does the source give for `CC(C)CN(C[C@@H](O)[C@H](Cc1ccccc1)NC(=O)O[C@H]1CO[C@H]2OCC[C@H]21)S(=O)(=O)c1ccc2sc(NC3CCN(C4CCCC4)CC3)nc2c1` here?
**A.** 1.6

What follows are molecules tested on Human immunodeficiency virus 1 (assay: Antiviral activity against HIV1 T13632 infected in human MT4 cells expressing LTR and EGFP assessed as inhibition of virus-induced cytopathic effect by fluorescence microscopic analysis). Conditions: Human immunodeficiency virus 1, T13632, MT4.
Type: functional, organism-based

**Q.** With `CC(C)CN(C[C@@H](O)[C@H](Cc1ccccc1)NC(=O)O[C@H]1CO[C@H]2OCC[C@H]21)S(=O)(=O)c1ccc2sc(NC3CCN(C4CCCC4)CC3)nc2c1` as the molecule, how does the EC50 read?
**A.** 42 nM

What follows are molecules tested on Human immunodeficiency virus 1 (assay: Ratio of EC50 for antiviral activity against HIV1-T13436 to EC50 for antiviral activity against wild type HIV1 r13205). Conditions: not given.
Type: functional

**Q.** Which “Ratio EC50” value does the source give for `CC(C)CN(C[C@@H](O)[C@H](Cc1ccccc1)NC(=O)O[C@H]1CO[C@H]2OCC[C@H]21)S(=O)(=O)c1ccc2sc(NC3CCN(C4CCCC4)CC3)nc2c1` here?
**A.** 0.2

The molecules below were run on Human immunodeficiency virus 1 (assay: Antiviral activity against HIV1 T21217 infected in human MT4 cells expressing LTR and EGFP assessed as inhibition of virus-induced cytopathic effect by fluorescence microscopic analysis). Conditions: Human immunodeficiency virus 1, T21217, MT4.
Type: functional, organism-based

**Q.** How did the EC50 turn out when `CC(C)CN(C[C@@H](O)[C@H](Cc1ccccc1)NC(=O)O[C@H]1CO[C@H]2OCC[C@H]21)S(=O)(=O)c1ccc2sc(NC3CCN(C4CCCC4)CC3)nc2c1` was run?
**A.** 312 nM

What follows are molecules tested on Human immunodeficiency virus 1 (assay: Antiviral activity against HIV1 T13717 infected in human MT4 cells expressing LTR and EGFP assessed as inhibition of virus-induced cytopathic effect by fluorescence microscopic analysis). Conditions: Human immunodeficiency virus 1, T13717, MT4.
Type: functional, organism-based

**Q.** For `CC(C)CN(C[C@@H](O)[C@H](Cc1ccccc1)NC(=O)O[C@H]1CO[C@H]2OCC[C@H]21)S(=O)(=O)c1ccc2sc(NC3CCN(C4CCCC4)CC3)nc2c1`, which EC50 is on record?
**A.** 68 nM

What follows are molecules tested on Human immunodeficiency virus 1 (assay: Antiviral activity against wild type HIV1 r13205 infected in human MT4 cells expressing LTR and EGFP assessed as inhibition of virus-induced cytopathic effect by fluorescence microscopic analysis). Conditions: Human immunodeficiency virus 1, r13205, MT4.
Type: functional, organism-based

**Q.** How did the EC50 turn out when `CC(C)CN(C[C@@H](O)[C@H](Cc1ccccc1)NC(=O)O[C@H]1CO[C@H]2OCC[C@H]21)S(=O)(=O)c1ccc2sc(NC3CCN(C4CCCC4)CC3)nc2c1` was run?
**A.** 26 nM

What follows are molecules tested on Human immunodeficiency virus 1 (assay: Ratio of EC50 for antiviral activity against HIV1-T20760 to EC50 for antiviral activity against wild type HIV1 r13205). Conditions: not given.
Type: functional

**Q.** How did the “Ratio EC50” value turn out when `CC(C)CN(C[C@@H](O)[C@H](Cc1ccccc1)NC(=O)O[C@H]1CO[C@H]2OCC[C@H]21)S(=O)(=O)c1ccc2sc(NC3CCN(C4CCCC4)CC3)nc2c1` was run?
**A.** 2.5

Each molecule was assayed on Human immunodeficiency virus 1 (assay: Ratio of EC50 for antiviral activity against HIV1-T13717 to EC50 for antiviral activity against wild type HIV1 r13205). Conditions: not given.
Type: functional

**Q.** With `CC(C)CN(C[C@@H](O)[C@H](Cc1ccccc1)NC(=O)O[C@H]1CO[C@H]2OCC[C@H]21)S(=O)(=O)c1ccc2sc(NC3CCN(C4CCCC4)CC3)nc2c1` as the molecule, how does the “Ratio EC50” value read?
**A.** 2.6

Each molecule was assayed on Human immunodeficiency virus 1 (assay: Ratio of EC50 for antiviral activity against HIV1-T21055 to EC50 for antiviral activity against wild type HIV1 r13205). Conditions: not given.
Type: functional

**Q.** How did the “Ratio EC50” value turn out when `CC(C)CN(C[C@@H](O)[C@H](Cc1ccccc1)NC(=O)O[C@H]1CO[C@H]2OCC[C@H]21)S(=O)(=O)c1ccc2sc(NC3CCN(C4CCCC4)CC3)nc2c1` was run?
**A.** 12

What follows are molecules tested on Human immunodeficiency virus 1 (assay: Antiviral activity against HIV1 T13436 infected in human MT4 cells expressing LTR and EGFP assessed as inhibition of virus-induced cytopathic effect by fluorescence microscopic analysis). Conditions: Human immunodeficiency virus 1, T13436, MT4.
Type: functional, organism-based

**Q.** With `CC(C)CN(C[C@@H](O)[C@H](Cc1ccccc1)NC(=O)O[C@H]1CO[C@H]2OCC[C@H]21)S(=O)(=O)c1ccc2sc(NC3CCN(C4CCCC4)CC3)nc2c1` as the molecule, how does the EC50 read?
**A.** 5.1 nM

The molecules below were run on Human immunodeficiency virus 1 (assay: Antiviral activity against HIV1 T20760 infected in human MT4 cells expressing LTR and EGFP assessed as inhibition of virus-induced cytopathic effect by fluorescence microscopic analysis). Conditions: Human immunodeficiency virus 1, T20760, MT4.
Type: functional, organism-based

**Q.** How did the EC50 turn out when `CC(C)CN(C[C@@H](O)[C@H](Cc1ccccc1)NC(=O)O[C@H]1CO[C@H]2OCC[C@H]21)S(=O)(=O)c1ccc2sc(NC3CCN(C4CCCC4)CC3)nc2c1` was run?
**A.** 65 nM
